Where two headings read alike, the source gives them in different places.
Target: T1, LOXL2 (Homo sapiens, UniProt Q9Y4K0)
T1 sequence (Q9Y4K0 26-774): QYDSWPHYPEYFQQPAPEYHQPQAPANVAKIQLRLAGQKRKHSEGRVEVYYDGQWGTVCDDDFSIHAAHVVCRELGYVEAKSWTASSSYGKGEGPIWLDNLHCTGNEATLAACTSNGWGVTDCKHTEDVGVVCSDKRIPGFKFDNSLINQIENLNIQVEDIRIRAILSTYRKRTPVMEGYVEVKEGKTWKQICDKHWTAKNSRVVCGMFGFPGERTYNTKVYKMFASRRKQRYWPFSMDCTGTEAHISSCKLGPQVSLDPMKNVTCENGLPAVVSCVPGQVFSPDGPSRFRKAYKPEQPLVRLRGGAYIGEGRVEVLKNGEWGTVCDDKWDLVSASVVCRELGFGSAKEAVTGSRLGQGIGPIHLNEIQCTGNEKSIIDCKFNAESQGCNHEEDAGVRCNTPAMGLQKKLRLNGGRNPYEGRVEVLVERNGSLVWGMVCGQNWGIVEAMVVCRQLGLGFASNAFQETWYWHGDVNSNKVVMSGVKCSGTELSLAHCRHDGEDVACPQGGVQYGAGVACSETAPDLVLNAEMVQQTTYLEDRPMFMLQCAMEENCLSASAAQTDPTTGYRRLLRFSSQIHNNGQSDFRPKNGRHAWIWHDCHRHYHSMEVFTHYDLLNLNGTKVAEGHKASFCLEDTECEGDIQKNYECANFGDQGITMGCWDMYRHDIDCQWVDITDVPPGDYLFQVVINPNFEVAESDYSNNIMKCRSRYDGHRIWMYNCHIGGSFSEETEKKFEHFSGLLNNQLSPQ
Test: Time-dependent inhibition with pre-incubation 0-240 min (Fig. 2e)
Format: biochemical
Details: for remaining activity at 30 µM: log conc -4.52288; for remaining activity at 30 µM / remaining activity at 10 µM / remaining activity at 3.333 µM / remaining activity at 1.111 µM / remaining activity at 0.3704 µM / remaining activity at 0.12346 µM / remaining activity at 0.04115 µM / remaining activity at 0.013717 µM / remaining activity at 0.004572 µM / remaining activity at 0.001524 µM / remaining activity at 0.0005081 µM / remaining activity at 0.0001694 µM: read-out: LOXL2 specific activity; for remaining activity at 10 µM: log conc -5; for remaining activity at 3.333 µM: log conc -5.47712; for remaining activity at 1.111 µM: log conc -5.95424; for remaining activity at 0.3704 µM: log conc -6.43136; for remaining activity at 0.12346 µM: log conc -6.90849; for remaining activity at 0.04115 µM: log conc -7.38561; for remaining activity at 0.013717 µM: log conc -7.86273; for remaining activity at 0.004572 µM: log conc -8.33985; for remaining activity at 0.001524 µM: log conc -8.81697; for remaining activity at 0.0005081 µM: log conc -9.29409; for remaining activity at 0.0001694 µM: log conc -9.77121
Text: Data are presented as mean ± s.d. […] Data presented as mean ± s.d. […] Source data TEXT PRINTED IN THE PICTURE: (b) PXS-5505: Recombinant DAO IC50 (nM): >30,000; Recombinant SSAO/VAP1 IC50 (nM): >30,000; Recombinant MAO-A IC50 (nM): >30,000; Recombinant MAO-B IC50 (nM): >30,000 | (f) PXS-5505: Fibroblast LOX IC50 (nM): 4,930; Recombinant LOXL-1 IC50 (nM): 1,590; Recombinant LOXL-2 IC50 (nM): 570; Recombinant LOXL-3 IC50 (nM): 1,800; Recombinant LOXL-4 IC50 (nM): 190
Similar to other fluoroallylamine-based amine oxidase inhibitors, the mode of inhibition is assumed to be a two-step mechanism (Fig. 2c), with PXS-5505 reacting with the unique LTQ cofactor found within the active site. The fluoroallylamine facilitates the formation of a covalent, irreversible bond. […] Furthermore, in jump dilution experiments, there is no significant recovery of activity following rapid dilution (LOXL1 (5 ± 5% recovery, n = 4), LOXL2 (7 ± 1.2% recovery, n = 3) and LOXL3 (11 ± 2% recovery, n = 3)).

Cl.Cl.NC/C=C(\F)CS(=O)(=O)c1cccc2cccnc12.O [PXS-5505, (Z)-3-fluoro-4-(quinolin-8-ylsulfonyl)but-2-en-1-amine dihydrochloride monohydrate]
remaining activity at 30 µM (0.25 h, pre-incubation 15 min): 1.28%
remaining activity at 10 µM (0.25 h, pre-incubation 15 min): 4.38%
remaining activity at 3.333 µM (0.25 h, pre-incubation 15 min): 16%
remaining activity at 1.111 µM (0.25 h, pre-incubation 15 min): 38.5%
remaining activity at 0.3704 µM (0.25 h, pre-incubation 15 min): 64%
remaining activity at 0.12346 µM (0.25 h, pre-incubation 15 min): 86.7%
remaining activity at 0.04115 µM (0.25 h, pre-incubation 15 min): 93.6%
remaining activity at 0.013717 µM (0.25 h, pre-incubation 15 min): 96.4%
remaining activity at 0.004572 µM (0.25 h, pre-incubation 15 min): 99.2%
remaining activity at 0.001524 µM (0.25 h, pre-incubation 15 min): 98.4%
remaining activity at 0.0005081 µM (0.25 h, pre-incubation 15 min): 97.8%
remaining activity at 0.0001694 µM (0.25 h, pre-incubation 15 min): 102%
remaining activity at 30 µM (0.5 h, pre-incubation 30 min): -0.266%
remaining activity at 10 µM (0.5 h, pre-incubation 30 min): -0.0903%
remaining activity at 3.333 µM (0.5 h, pre-incubation 30 min): 4.21%
remaining activity at 1.111 µM (0.5 h, pre-incubation 30 min): 17.3%
remaining activity at 0.3704 µM (0.5 h, pre-incubation 30 min): 43.6%
remaining activity at 0.12346 µM (0.5 h, pre-incubation 30 min): 72.5%
remaining activity at 0.04115 µM (0.5 h, pre-incubation 30 min): 87.7%
remaining activity at 0.013717 µM (0.5 h, pre-incubation 30 min): 93.2%
remaining activity at 0.004572 µM (0.5 h, pre-incubation 30 min): 96.3%
remaining activity at 0.001524 µM (0.5 h, pre-incubation 30 min): 109%
remaining activity at 0.0005081 µM (0.5 h, pre-incubation 30 min): 99.4%
remaining activity at 0.0001694 µM (0.5 h, pre-incubation 30 min): 103%
remaining activity at 30 µM (1 h, pre-incubation 60 min): -0.646%
remaining activity at 10 µM (1 h, pre-incubation 60 min): 0.037%
remaining activity at 3.333 µM (1 h, pre-incubation 60 min): 1.01%
remaining activity at 1.111 µM (1 h, pre-incubation 60 min): 5.82%
remaining activity at 0.3704 µM (1 h, pre-incubation 60 min): 23.2%
remaining activity at 0.12346 µM (1 h, pre-incubation 60 min): 62.4%
remaining activity at 0.04115 µM (1 h, pre-incubation 60 min): 86.9%
remaining activity at 0.013717 µM (1 h, pre-incubation 60 min): 97.3%
remaining activity at 0.004572 µM (1 h, pre-incubation 60 min): 101%
remaining activity at 0.001524 µM (1 h, pre-incubation 60 min): 104%
remaining activity at 0.0005081 µM (1 h, pre-incubation 60 min): 104%
remaining activity at 0.0001694 µM (1 h, pre-incubation 60 min): 106%
remaining activity at 30 µM (2 h, pre-incubation 120 min): -0.278%
remaining activity at 10 µM (2 h, pre-incubation 120 min): 1.09%
remaining activity at 3.333 µM (2 h, pre-incubation 120 min): 1.27%
remaining activity at 1.111 µM (2 h, pre-incubation 120 min): 2.05%
remaining activity at 0.3704 µM (2 h, pre-incubation 120 min): 7.04%
remaining activity at 0.12346 µM (2 h, pre-incubation 120 min): 36.3%
remaining activity at 0.04115 µM (2 h, pre-incubation 120 min): 69.5%
remaining activity at 0.013717 µM (2 h, pre-incubation 120 min): 87.9%
remaining activity at 0.004572 µM (2 h, pre-incubation 120 min): 97.9%
remaining activity at 0.001524 µM (2 h, pre-incubation 120 min): 102%
remaining activity at 0.0005081 µM (2 h, pre-incubation 120 min): 102%
remaining activity at 0.0001694 µM (2 h, pre-incubation 120 min): 103%
remaining activity at 30 µM (4 h, pre-incubation 240 min): -0.548%
remaining activity at 10 µM (4 h, pre-incubation 240 min): 0.438%
remaining activity at 3.333 µM (4 h, pre-incubation 240 min): 0.0615%
remaining activity at 1.111 µM (4 h, pre-incubation 240 min): 0.566%
remaining activity at 0.3704 µM (4 h, pre-incubation 240 min): 1.17%
remaining activity at 0.12346 µM (4 h, pre-incubation 240 min): 14.1%
remaining activity at 0.04115 µM (4 h, pre-incubation 240 min): 45.6%
remaining activity at 0.013717 µM (4 h, pre-incubation 240 min): 71.8%
remaining activity at 0.004572 µM (4 h, pre-incubation 240 min): 91.6%
remaining activity at 0.001524 µM (4 h, pre-incubation 240 min): 95.6%
remaining activity at 0.0005081 µM (4 h, pre-incubation 240 min): 101%
remaining activity at 0.0001694 µM (4 h, pre-incubation 240 min): 102%
time-dependent inhibition of LOXL2 specific activity (pre-incubation time 0–240 min): increased potency with increased pre-incubation time

From article PMC10518255, “A first-in-class pan-lysyl oxidase inhibitor impairs stromal remodeling and enhances gemcitabine response and survival in pancreatic cancer” (Nature Cancer, 2023)
